# Assay results reported in US10098895B2, “Treatment of symptoms related to neurodegenerative disorders through pharmacological dermal activation of cranial nerves” (GLIA, LLC, priority 2016, dated 2018).
# Entries after “also recorded” stand apart in the source; their conditions may differ.
# Assays:
# essential tremor = test: Example 7: essential tremor subject with contact lens discomfort; format: in vivo, human
# Description: A person developed persistent right hand tremors of a kinetic (non-resting) type that has been continuous over the past 6 years. […] This condition had not worsened over time. […] Initially, their doctor thought that these symptoms were stress related and they have been taking 2.5 mg of escitalopram for over 6 years. […] The subject was not on hormone replacement therapy or any other medication.
# Concomitantly, the subject suffered from uncomfortable eyes, with a sticky burning sensation and development of blurred vision after about 5-6 hours of contact lens wear. For the past 3 years, the subject was administered 1% progesterone gel (1 mg per day) by dermal application to the forehead once per night. The progesterone gel prolonged comfortable contact lens wear time with sustained visual acuity from 5-6 hours to greater than 15 hours. […] After 2 years of treatment, the benefits of progesterone dermal application persisted for at least 3 days without treatment. There was no effect of the progesterone on their tremor symptoms.
# After allowing for washout of progesterone for 3 days, they began forehead application of 0.5-0.75 mg dronabinol once daily at night.
# The dronabinol administration regimen was altered by dividing equally the once daily dose of 0.5-0.75 mg dronabinol between the conchae of the left ear, the conchae of the right ear, and the forehead. […] Comfortable contact lens wear, with ease of insertion and removal, and visual acuity extends for 15 hours or more after dronabinol application.
# Contact lens comfort wear duration was greater than 15 hours.
# In April 2017, the subject, while still being treated with 1% progesterone applied to the forehead, instituted a once-daily low dose topical testosterone applied to the forehead and ear conchae to determine if doing so would produce a beneficial impact on further tremor reduction and in particular essential tremor triggered by caffeine consumption. […] They stopped the treatment to assess whether the tremor would return to pre-testosterone treatment levels. As of August 2017, the subject is without noticeable tremor. The caffeine trigger for tremor onset, which had been recognized throughout all treatments, has not re-appeared since the completion of the 4-week testosterone treatment. The subject continues on low-dose progesterone 1% applied daily to the forehead as the only treatment.
# [1] = system: Parkinson's disease symptoms; test: Example 1: Parkinson's disease patient, dermal application to forehead and ear conchae
# Description: A person was diagnosed with the early stages of Parkinson's disease in December of 2014. Their symptoms included tremors in the hands, impaired short term memory, slow and uncontrolled rigid movements while walking and eating, and declining ocular blink function. The patient also had dry eyes with hyper-tearing, burning, and itching.
# The patient was also treated with progesterone 1% on the forehead initially once daily beginning in March 2015. […] The progesterone was applied as needed for about a year.
# Instead of the prescribed regimen, the patient began dermal application of dronabinol 1.25 mg 2 times daily to three sites: (i) the forehead, (ii) the concha of the left ear, and (iii) the concha of the right ear. Each dose of 1.25 mg was divided equally between the three application sites. This treatment regimen began Friday Jun. 10, 2016 concurrent with the discontinuation of rasagiline.
# In February 2017, the patient, who suffers from debilitating moderate spinal stenosis, started taking Azilect (rasagiline) and carbidopa-levodopa to improve their walking and flexibility. […] The patient decided that, together with the prescribed medications, they would switch from dronabinol to topical testosterone gel applied to the forehead and ear conchae to see if this would impact their longstanding low testosterone levels.
# In March 2017, topical testosterone gel application was instituted as an adjunct to is the prescribed Azilect and carbidopa-levodopa.
# The patient voluntarily stopped topical testosterone for 3 weeks in June 2017. […] At the end of 3 weeks, topical testosterone was re-instituted as an adjunct to the prescribed medications.
# herpes facial palsy = test: Example 9: functional facial motor control in herpes facial palsy; format: in vivo, human
# From the text: A person had unilateral facial unilateral palsy stemming from 2003 herpes ophthalmicus and herpes keratitis. The left eye lids were unable to close to cover the central cornea without a forceful blink; neither were the lids able to open with the upper lid sagging and without elasticity or muscle control. This static condition was the baseline since the end of 2003 to May 2016, or nearly 13 years.
# The left side of the face drooped, the left corner of the mouth drooled, and a noticeable asymmetry presented at rest. The upper lip could only slightly reveal the lowest pat of the upper teeth on the right side. There was minimal functional motor control of facial expression including upper lip. left side brow, eye lids, cheeks to mouth and chin lacked elasticity and functional motor control, leaving face fixed, expressionless, and asymmetrical.
# The facial skin sagged as did the eye lids. […] His upper lip was partially frozen on the left side, and drooling was persistent. Lip and mouth expression as in smile was severely restricted.
# Beginning in mid-May 2016, the patient began treatment twice daily with dronabinol 2.5 mg in oil, one-third of which was applied equally to the concha of the left ear, to the conchae of the right ear, and to the forehead.
# [2] = system: herpes ophthalmicus and herpes keratitis; test: Example 8: herpes ophthalmicus and herpes keratitis patient; format: in vivo, human; conditions: dronabinol 0.5 mg twice daily to both ears
# From the text: A patient experienced an episode of herpes ophthalmicus and herpes keratitis in September 2003, resulting in thinning melt of the left cornea, loss of vision, inflammation, neuralgia, and a rash of blisters to the left forehead, upper nose, and temple with a subsequent full left-face palsy droop, which required multiple cosmetic surgical procedures to provide some symmetry to the face and partial closure to the eyelids of the left eye.
# No corneal graft to the left eye could be attempted due to recurrent thinning of the full cornea and inflammation of the vasculature. The patient was treated with ophthalmic prednisolone, topical and systemic antivirals, topical antibiotics, bandage lens, punctal plugs, and over-the-counter artificial tears and gels. This treatment regimen was continued until January 2011 when the cornea thinned to probable melt-through, necessitating corneal patch surgery. Just prior to the surgery, the patient's vision was measured at 20/2000, or finger vision.
# The patient started applying 1% progesterone to their forehead twice daily just before corneal patch surgery planned for January 2011. The dose of progesterone was approximately 1 mg per application.
# In September 2014, corneal tissue had sufficiently epithelialized at the perimeter to attempt a corneal graft, which was successfully completed. Progesterone 1% was applied daily to the forehead post-surgery. Within 9 months vision was restored to best correct vision pinhole 20/50.
# In February 2015, the patient's visual acuity decreased as a result of the rejection of cells at the lower part of the graft. Moderate central staining continued to persist in a band where eyelids could not close. Intraocular pressure (TOP) in the left eye rose to 22 mmHg. The patient was placed on a treatment regimen that included Prednisolone Forte 6× plus Restasis for rejection 2× daily and oral valacycovir, together with mechanically taping the eyelid closed at night.
# In May 2016, the patient initiated a course of twice daily dronabinol treatment, 0.5 mg each dose, to both ears. Through July, stabilization was achieved, and all other medications were discontinued. […] Visual acuity improved to 20/40.
# [3] = dronabinol 1.25 mg 2 times daily, forehead and both conchae, two weeks, no other medications
# [4] = dronabinol 2.5 mg in oil twice daily divided between both conchae and forehead, 3 months
smiles,measurement,setting,value
"CCCCCc1cc(O)c2c(c1)OC(C)(C)[C@@H]1CCC(C)=C[C@@H]21 [dronabinol, (6aR,10aR)-6a,7,8,10a-tetrahydro-6,6,9-trimethyl-3-pentyl-6H-dibenzo[b,d]-pyran-1-ol]",comfortable contact lens wear duration,essential tremor; 0.5-0.75 mg dronabinol once daily divided between both conchae and forehead,≥ 15 h
same,hand tremor,"essential tremor; 0.5-0.75 mg dronabinol once daily divided between both conchae and forehead, by the fourth day",hand tremor had noticeably reduced
same,hand tremor,"essential tremor; 0.5-0.75 mg dronabinol once daily to forehead only, 2 weeks",without impacting their symptoms of hand tremor
same,"reduction of essential tremor from pre-treatment levels, stable new baseline",essential tremor; after discontinuing dronabinol,about 50%
same,ocular discomfort,"essential tremor; dronabinol USP 0.5 mg to 0.75 mg in an oil formulation to the forehead, substituted for progesterone",the same benefits to ocular discomfort was obtained
same,tremor amplitude after ceasing treatment,"essential tremor; dronabinol ceased for 3 days, right hand",about 50 % of pre-treatment level
same,reduction in essential tremor from pre-treatment baseline,essential tremor; during dronabinol treatment,80%
same,appetite,essential tremor; low dose topical dronabinol,unwanted increase in appetite
same,stability of improvement,[1]; 3 months of dronabinol to conchae and forehead as sole Parkinson's medication,stable at the improved level
same,"speech, thought and social interaction","[1]; dronabinol 1.25 mg 2 times daily divided between forehead and concha of both ears, within three days, washing out of rasagiline","more fluid speech, less searching for words, fewer thought gaps"
same,bodily rigidity,[1]; [3],significantly less bodily rigidity
same,depression,[1]; [3],depression resolved in the absence of antidepressants
same,facial masking,[1]; [3],decreased facial masking and more voluntary facial expressions; also recorded: decrease in facial masking
same,hand tremors,[1]; [3],markedly reduced hand tremors
same,memory function,[1]; [3],much improved memory function
same,motor skills and coordination,[1]; [3],motor skills and coordination improved
same,"postnasal drip, chest cough and asthmatic wheezing",[1]; [3],"persistent postnasal drip resolved, chest cough and asthmatic wheezing resolved"
same,dry eyes,"[1]; dronabinol 1.25 mg 2 times daily, forehead and both conchae, within three days",dry eyes resolved with no need for artificial tears
same,"improvement of Parkinson's disease symptoms (motor, cognitive, emotional), reported by wife","[1]; dronabinol since Jun. 10, 2016 as sole medication, reported Jul. 27, 2016",90%
same,cognitive function and other non-motor symptoms during tapering-off,"[1]; tapering-off of dronabinol, already on Azilect and carbidopa-levodopa",rapidly deteriorated
same,adverse events,[1]; throughout low dose neural cranial treatment,no adverse events were noted
same,facial droop and drool,herpes facial palsy; 3 months of dronabinol application to the ear conchae,droop ad drool significantly resolved
same,recurrence of facial palsy,herpes facial palsy; after dronabinol was discontinued in August 2016,no recurrence of facial palsy
same,best corrected vision with pinhole,herpes facial palsy; [4],20/25
same,conjunctival redness,herpes facial palsy; [4],improved significantly
same,control over facial expression muscles,herpes facial palsy; [4],regained control over facial expression muscles
same,early graft rejection,herpes facial palsy; [4],reversed
same,eye lid motor control,herpes facial palsy; [4],more motor control over both eye lids
same,persistent central corneal staining,herpes facial palsy; [4],resolved to a significant degree
same,tear film breakup time level by Keratograph 5M,"herpes facial palsy; dronabinol 2.5 mg in oil twice daily divided between both conchae and forehead, 3 months, 0 = best",0
same,corneal staining,[2]; May through July 2016,"improve somewhat, but still moderate"
same,graft rejected cells,[2]; May through July 2016,the number of rejected cells became fewer
same,visual acuity,[2]; May through July 2016,20/40
same,intraocular pressure (printed TOP),"[2]; May through July 2016, from 22 mmHg",16 mmHg
same,best corrected vision pinhole,[2]; beginning of August,20/25
same,blink interval,[2]; beginning of August,approximately 24 second
same,corneal staining,[2]; beginning of August,staining improved to superficial
same,intraocular pressure (printed TOP) in both eyes,[2]; beginning of August,18
same,rejection cells,[2]; beginning of August,no sign of rejection cells
same,Keratograph 5M non-invasive tear film break times (NIKBUTs) level,"[2]; beginning of August, 0 = best",0
